Laboratory results published in patent EP0503411A1, “Substituted N-phenylpiperidines and medicaments thereof” (BASF Aktiengesellschaft, priority 1991, dated 1992).

Key:
[1] = tested on: Meerschweinchenherzen; test: QT-prolonging effect, ECG measurement on isolated Langendorff-perfused guinea pig heart; design: species or system Duncin-Hartley-Meerschweinchen; conditions: concentration in perfusate giving 20 % increase of initial QT duration, cumulative addition every 15 min, from linear regression
Excerpt: Die Wirkung der Phenylpiperidine I als Repolarisationshemmstoffe kann man durch EKG-Messungen belegen. Dabei unterteilt man die Herzperiode zeitlich in Systole (Zusammenziehen des Herzens), auch QT-Dauer genannt, und Diastole (Erschlaffung des Herzens mit Blutfüllung der Herzkammern). Repolarisationshemmstoffe bewirken nun eine Verlängerung der QT-Dauer ohne die Vorhofkammer-überleitungszeit (PQ-Dauer) und die Anspannungszeit (QRS-Dauer, Beginn der Systole bis zum öffnen der Semilunarklappen) wesentlich zu verändern (s. Pschyrembel, 254. Auflage, 1982).
Die Wirksamkeit der erfindungsgemäßen Verbindungen als Repolarisationshemmstoffe läßt sich im Tierversuch durch EKG-Messungen beispielsweise am Meerschweinchenherzen untersuchen (s. Basic Res. Cardiol. 82 (1987) 437; J. Pharmacol. Methods 21 (1989) 195). Zum Vergleich der Wirksamkeit mehrerer Substanzen dient dabei zum Beispiel die Dosis eines Wirkstoffes, bei der eine 20 %ige Zunahme des QT-Ausgangswertes eintritt (ED₂₀ %). Hierzu trägt man die logarithmierten Dosiswerte der jeweiligen Substanzen gegen die experimentell gefundenen relativen Änderungen der QT-Dauer auf, und ermittelt mittels linearer Regression die Funktionsgleichung einer Geraden, aus der man dann den ED20 %-Wert berechnen kann.
Mit dieser Methode wurden die ED20 %-Werte erfindungsgemäßer Verbindungen bestimmt (s. Tabelle 1). Als Vergleichssubstanz diente D-Sotalol [4'-(1-Hydroxy-2-(isopropylamino)-ethyl)methansulfonanilid].
Als Versuchstiere dienten männliche Duncin-Hartley-Meerschweinchen mit einem Körpergewicht von 300 bis 350 g. 30 min nach Applikation von 1250 I.E. Heparin/kg Körpergewicht in den Bauchraum wurden die Tiere durch Genickschlag getötet. Nach dem Durchtrennen der Kopfschlagadern zum Entbluten, wurde der Bruststamm geöffnet, das Herz herausgetrennt und an eine Perfusionsapparatur angeschlossen. Die Perfusion erfolgte nach Langendorff mit Sauerstoff angereicherter auf 37°C erwärmter Krebs-Henseleit-Lösung (NaCl 6896 mg/l; KCl 350 mg/l; MgSO₄ 285 mg/l; CaCl₂ 370 mg/l; KH₂PO₄ 161 mg/l; NaHCO₃ 2090 mg/l; Glukose 2000 mg/l). Dabei wurde das Perfusionsvolumen pro Zeiteinheit bei einem Gesamtvolumen von 100 ml auf 4 bis 6 ml/min und der Perfusionsdruck auf 60 bis 70 mm Hg eingestellt. Nach einer Äquilibrierzeit von 30 min wurde zirkulierend perfundiert.
Die EKG-Messungen wurden über zwei Silberelektroden, die auf der Herzoberfläche im oberen Bereich der linken Koronararterie und auf der Rückseite des Herzens auf Höhe der Ventilebene angebracht waren, aufgenommen. Gemessen wurden die PQ-, QT- und QRS-Zeiten sowie die Herzfrequenz.
Die Substanzgabe erfolgte kumulativ im Abstand von 15 min ins Perfusat.

[2] = target: Sigma-Rezeptor; test: Sigma receptor binding test ([³H]-Ditolylguanidin binding, rat cerebrum membranes); design: species or system Ratte; conditions: [³H]-Ditolylguanidin-Bindungsstelle, 37°C
Excerpt: Der verwendete Bindungsassay (Bindung von [³H]-Ditolylguanidin) erfaßt sogenannte "Haloperidolsensitive-Sigma-Rezeptoren", die eine hohe Affinität zum Haloperidol, aber nur geringe Affinität zum Phencyclidin und zu Opoiden aufweisen.
Life Sciences 47, 1073 (1990)], eingesetzt.
Rattengroßhirne wurden in dem 10fachen Volumen Homogenisierungspuffer (50 mmol Tris(hydroxymethyl)-amino-methan, 0,1 mmol Ethylendiamintetraacetat, pH=7,7) mit einem Polytron-Homogenisiator homogenisiert (20 sec.). Nach 15 Minuten Zentrifugation bei 40000 Umdrehungen/min wurde das erhaltene Pellet resuspendiert und die Suspension erneut 15 Minuten lang mit 40000 Umdrehungen/min zentrifugiert. Das hierbei erhaltene Pellet wurde im 5fachen Volumen Homogenisierungspuffer resuspendiert und bis zur weiteren Verwendung in flüssigem Stickstoff eingefroren.
Testsubstanz und Membranen (0,3 mg Protein) wurden in 0,3 ml Inkubationspuffer (5 mmol Tris(hydroxymethyl)-amino-methan, 0,1 mmol Ethylendiamintetraacetat, pH=7,7) 45 Minuten bei 37°C inkubiert. Nach Zugabe von 100 000 dpm [³H]-Ditolylguanidin (54,5 Ci/mmol) wurde noch 1 Stunde inkubiert. Die Membranen wurden über GF/B-Filter (dunn-Labortechnik, Asbach) filtriert und mit einem 37°C warmen Waschpuffer (5 mmol Tris(hydroxymethyl)-amino-methan, 0,1 mmol Ethylendiamintetraacetat, pH=7,4) gewaschen. Die verbleibende Radioaktivität auf den Filtern wurde durch Flüssig-Scintillationszählung gemessen. Die Bindungsdaten wurden durch iterative Anpassungsprogramme analysiert.

Ki [2] [nM] | Compound | ED20 % [1]
2 | CN(Cc1ccccc1)C1CCCN(c2ccc([N+](=O)[O-])cc2)C1 (stereo not shown) [Beispiel 11, 3-(N-Benzyl-N-methylamino)-1-(4-nitrophenyl)-piperidin] | 1,1 µmol/l
 | CN(Cc1ccc(NS(C)(=O)=O)cc1)CC1CCN(c2ccc(NS(C)(=O)=O)cc2)CC1 [Beispiel 10, 1-(4-Methansulfonamidophenyl)-4-(N-(4-methansulfonamidobenzyl)-N-methylaminomethyl)-piperidin] | 0,96 µmol/l
29.1 | Cc1ccccc1NC(=N)Nc1ccccc1C [DTG, 1,3-Di-o-tolyl-guanidin, reference compound] | 
 | CN(CC(O)c1ccc(F)cc1)C1CCN(c2ccc([N+](=O)[O-])cc2)CC1 (stereo not shown) [Beispiel 12, 4-[N,N-[2-(4-Fluorphenyl)-2-hydroxyethyl]methylamino]-1-(4-nitrophenyl)-piperidin] | 0,21 µmol/l
 | CC(C)NCC(O)c1ccc(NS(C)(=O)=O)cc1 [D-Sotalol, 4'-(1-Hydroxy-2-(isopropylamino)-ethyl)methansulfonanilid, reference compound] | 16,0 µmol/l
11 | CN(Cc1ccccc1)CC1CCN(c2ccc([N+](=O)[O-])cc2)CC1 [Beispiel 2, 4-(N-Benzyl-N-methylaminomethyl)-1-(4-nitrophenyl)-piperidin] | 0,42 µmol/l
2.8 | 1-(4-Nitrophenyl)-4-(4-phenyl-1-piperidinoyl)-piperidin [Beispiel 8] | 
 | N#Cc1ccc(N2CCC(N3CCN(c4ccc([N+](=O)[O-])cc4)CC3)CC2)cc1 [Beispiel 3, N-[4-N(4-Cyanophenyl)piperidinoyl]-N'³(4-nitrophenyl)-piperazin] | 0,031 µmol/l
